# Several values for one entry are separate records, joined by “and”; a condition that tells them apart may be missing. Equal entries are not always repeated. Where two headings read alike, the source gives them in different places.
# Key:
# [1] = system: B. subtilis var. globigii (ATCC. 9372)
# Protocol: (§1) The experiments were designed to identify the conditions optimal for polymer sterilization and also explore the boundary areas to determine the conditions limiting the efficacy of the treatment. Each polymer strip was inoculated by drop spotting approximately 100 micro-liters and coating the surface by swabbing the surface of the polyethylene strip. The culture was allowed to dry before sterilization. Each strip of polyethylene was treated by vigorously agitating the strip in the appropriate treatment solutions. Each treated polymer strip was then treated with catalase to inactivate residual peroxide, swabbed and plated using TGE incubated at 35° C. for two days.
# Five replicate polymer strips were used for each of the two methods of the present invention. A log measurement value is provided below each of the non-log values. The first method uses hydrogen peroxide first and then an alkaline solution of sodium hydroxide. The second method uses an alkaline solution of sodium hydroxide first and then hydrogen peroxide. The sterilization was conducted at 50° C.
# In Table Three, a solution of 0.1 Normal potassium hydroxide (KOH) was utilized with a solution of 3% hydrogen peroxide at a temperature of 35° C. for 30 seconds.
# [2] = system: B. subtilis var. globigii (ATCC. 9372); details: 50° C.; for bacteriocidal effect (in words): Table Two conditions; for CFU/Swab / logCFU/Swab / Average (logCFU/Swab) / Log reduction: Table Two; for CFU/Swab / logCFU/Swab: contact times as in the label, one value per replicate; for Average (logCFU/Swab): mean of replicates; for Log reduction: versus inoculated untreated control (6.66)
# Protocol: as §1
# A log measurement value is provided below each of the non-log values. The sterilization was conducted at 50° C.
# [3] = Table Three, 35° C. for 30 seconds, one value per replicate
Compound,bacteriocidal effect (in words) [2],CFU/Swab [2],logCFU/Swab [2],Average (logCFU/Swab) [2],Log reduction [2],other results
"[Na+].[OH-] [1M NaOH Control, sodium hydroxide]",,,,,,"CFU/Swab ([1]; Table One, 50° C., survivors after treatment, inoculum 10^6, one value per replicate strip): 5,700 CFU/Swab and 210 CFU/Swab; logCFU/Swab ([1]; Table One, 50° C., survivors after treatment, one value per replicate strip): 3.76 logCFU/Swab and 2.32 logCFU/Swab"
"[Na+].[OH-] [50° C. 10 s 0.25M NaOH Control, sodium hydroxide]",no bacteriocidal effect,"3,800,000 CFU/Swab and 7,900,000 CFU/Swab and 5,400,000 CFU/Swab and 6,300,000 CFU/Swab",6.80 logCFU/Swab and 6.58 logCFU/Swab and 6.90 logCFU/Swab and 6.73 logCFU/Swab,6.75,,
"OO [50° C. 30 s 3.5% H2O2 10 s catalase, hydrogen peroxide]",no effect,"4,200,000 CFU/Swab and 4,000,000 CFU/Swab and 3,000,000 CFU/Swab and 5,000,000 CFU/Swab and 1,600,000 CFU/Swab",6.20 logCFU/Swab and 6.62 logCFU/Swab and 6.60 logCFU/Swab and 6.48 logCFU/Swab and 6.70 logCFU/Swab,6.52,0.14,
"OO [50° C. 30 s 35% H2O2 10 s catalase, hydrogen peroxide]",,570 CFU/Swab and 20 CFU/Swab and 270 CFU/Swab and 2700 CFU/Swab and 40 CFU/Swab,1.60 logCFU/Swab and 2.76 logCFU/Swab and 1.30 logCFU/Swab and 2.43 logCFU/Swab and 3.43 logCFU/Swab,2.30,4.35,rate of inactivation ([2]; thirty second treatment): 1.45 log per 10 seconds of treatment; Log reduction ([2]; listed as thirty second hydrogen peroxide treatment (column 4)): 4.35
"OO [H2O2 Control, hydrogen peroxide]",,,,,,"CFU/Swab [1, 3]: 5,200,000 CFU/Swab; logCFU/Swab [1, 3]: 6.72 logCFU/Swab"

# — patent US20070006551A1, “Method and apparatus for sterilizing and filling containers” (priority 2005, published 2007)
